Experimental findings from US7919579B2, “Imaging and therapeutic targeting of prostate and bladder tissues” (The Board of Regents of the University of Texas System, priority 2006, dated 2011) are described below.

The subject of one data set is C4-2. The following applies: human, 5 μM.
In the next data set the test system is PC3. The settings on record: human, 5 μM.
Data set [1] concerns lung metastasis of T24 bladder cancer. The settings on record: mouse, in vivo.
Procedure: Top right panel, athymic nude mice were chosen based on a similar size of lung metastasis of bladder cancer from BLI were IV injected with 5 nmole FITC-R11 (left) or FITC (right) per gram body weight. Twenty-four hours after injection, whole body imaging (top left panel) or ex vivo imaging (bottom middle and right panel) of lung was carried out with Maestro In-vivo Imaging System (CRI, Inc.). The image shown is one of the representative experiments.
The test system of another data set is LAPC4. The settings on record: human, 5 μM.
Details of data set [2]: species or system nude mice. The following applies: in vivo. How it is done:
FIGS. 9A-C—Comparison of delivery efficiency between different length of polyarginines. (FIG. 9A) In vitro uptake by bladder cancer cell lines 30 min after incubation. Relative uptake was determined by fluorometer and normalized using R11 5 μM (=1) in each cell line. (FIG. 9B) Animal study (n=3; 24 h post injection). The peptides (5 nmole/gram body weight) were administered via intravenous (IV) route. SV: seminal vesicle; CG: coagulation gland. (FIG. 9C) The tissue localization of FITC-R11 in mouse bladder.
Although the cellular uptake mechanism of CPPs is not completely understood, they were not supposed to have cell specificity. Also, the efficiency of CPPs delivery varies among different species and length. For example, Mai et al. (2002) has reported that the 8-mer and 10-mer of polylysine have higher cell permeable efficiency for a broad range of cell types than polyarginine does. However, the inventors observed that polyarginine is more efficiency than polylysine in bladder cancer cells (FIG. 9A). In order to further determine whether R11 is the best polyarginine for bladder cancer cells, the inventors examined the uptake efficiency using different lengths of polyarginine.

The nature of another data set: in vitro. The settings on record: human.
Another data set relates to LNCaP. The settings on record: human, 5 μM.
A short description of data set [3]: in vivo. On the set-up: species or system nude mice. The following applies: nude, mouse. As for the experimental part:
Peptides may be radiolabeled with ^18F or ^64Cu for in vitro and in vivo PET imaging evaluations. The peptides may be prepared using standard F-moc chemistry on an automated peptide synthesizer. Pharmacokinetic parameters of ^64Cu-labeled R11, the lead peptide, were evaluated by the inventors in preliminary experiments by using a two-compartment model. […] However, due to the unknown mechanism of the peptide specificity, it is reasonable to assume that a longer circulation time in the blood is preferable to enhance the image contrast. […]
The tissue distribution of the radiolabeled peptides or peptide conjugates may be evaluated in normal nude mice. […] At selected time points post-injection, animals may be sacrificed, and organs of interest removed, weighed, and counted. The percent injected dose per gram (% ID/g) and percent injected dose per organ (% ID/organ) can be calculated by comparison to a weighed, counted, standard. […] Specifically, blood (10-20-μL) can be drawn from the retroorbital sinus of the animals at 5-min, 10-min, 20-min, and 40-min, and counted on a gamma counter.
The pharmacokinetics of the ^64Cu-labeled peptide was also evaluated by using a two-compartment model. […]

A short description of data set [4]: in vivo. The settings on record: nude, mouse, iv, uptake of control lungs.
Procedure: (§1) The tumor-bearing animal model was established by injecting into the left flank of each nude mouse subcutaneously with human T24 cell suspension (2×10^6 cells in 100-μL of medium). The tumors were allowed to grow for 42 days prior to PET imaging. […] The microPET imaging studies were performed using the microPETR4 rodent scanner (Concorde Microsystems, Knoxville, Tenn.). The scanner provides a 10×8 cm field of view, and the scanner is currently capable of an axial and transaxial resolution of 2 mm, with an absolute sensitivity of 900 counts per second per μCi. Images were reconstructed using Fourier rebinning followed by two-dimensional filtered back projection. […] At 15 min, 60 min, and 4 hr post injection (p.i.), the mice were anesthetized and immobilized in a supine position on a support bed with attached anesthetic gas nose cones for data collection. The imaging collection time was 10 min.
(§2) After the 4-hr microPET imaging, the animals were sacrificed. The lungs were removed from both mice. […] The harvested lungs were imaged by microPET again.
Data set [5] can be described thus: in vivo. On the set-up: species or system nude mice. The following applies: nude, mouse. From the text: The lungs were removed from both mice. […] The harvested lungs were imaged by microPET again.
The source holds these as a separate data set.

Data set [6] can be described thus: biodistribution of ^64Cu-DOTA-R11 in normal nude mice. The following applies: 5-10 μCi; % ID/g. In kind it is in vivo. How it is done:
FIG. 6—Biodistribution data of ^64Cu-DOTA-R11 in normal nude mice (n=4). Data are presented as % ID/g±s.d. SV: seminal vesicle; CG: coagulation gland.
The injected dose of ^64Cu-DOTA-R11 in the biodistribution studies was in range of 5-10 μCi. The animals were sacrificed at specific time points (n=4 at each time point). Organs of interest were removed, weighed, and counted. Standards were prepared and counted along with the samples to calculate the percent injected dose per gram tissue (% ID/g).
In order to explore the application of R11 for the detection of bladder cancer metastasis via PET, the inventors conjugated this peptide with a bifunctional chelator, DOTA (1,4,7,10-tetraazacyclododecane-1,4,7,10-tetraacetic acid), so that R11 could be radiolabeled with ^64Cu. […] The radiolabeled peptide was purified via a C-18 cartridge (Millipore) to have >95% radiochemical purity as determined by radio-TLC and HPLC prior to the biodistribution and PET imaging studies. […] Organs of interest were removed, weighed, and counted. Standards were prepared and counted along with the samples to calculate the percent injected dose per gram tissue (% ID/g). […] In addition, the pharmacokinetics of the ^64Cu-labeled peptide was also evaluated by using a two-compartment model.

In another data set the test system is T24 lung metastases. The following applies: mouse, in vivo.

Each structure is given as a SMILES string. “Also recorded” adds a separate entry of the source.

Procedure for C4-2: (§3) The fluorescence-labeled CPPs (TAT, Penetratin (PENE), KALA, R11 & K11) were synthesized and tested in a variety of PCa cells (LNCaP, C4-2, LAPC4 and PC3 cells). […] Different concentrations of each CPP were incubated with cells for 30 minutes prior to cell harvesting. Relative FITC intensity was determined by normalizing fluorescence intensity of each treatment with its cell numbers. […] R11 (5 μM) was incubated with cells at the indicated time. Relative FITC intensity was determined by normalizing fluorescence intensity of each treatment with its cell numbers. […] Cells were pulsed with R11 (5 μM) chased for the indicated time and the percentage of uptake was used time zero (=100%). Each column or data point represents mean±SD in triplicate. […]
(§4) Therefore, the dynamics of R11 uptake was evaluated by incubating cells with 5 μM R11 for 5, 10 and 30 minutes. […]
(§5) To determine the uptake efficiency of each CPP, different concentrations (0.1, 1, 5 μM) of FITC-tagged peptides were incubated with cells for 30 minutes (or different time for the time course study) then cells were washed twice with PBS and trypsinized. After washing with PBS twice, the total cell number was determined and cells were lysed in Tris Buffer (50 mM Tris-HCl, pH 7.5, 150 mM NaCl, 5 mM EDTA, 1% Triton X100). The fluorescence intensity was examined by fluorometer (excitation 490-500 nm; emission 515-525 nm). […]
Procedure for LAPC4: as §3, §4, §5
Procedure for LNCaP: as §3, §4, §5
Procedure for PC3: as §3, §4, §5
Procedure for T24 lung metastases: as §1, §2
Procedure for in vitro: as §3, §4, §5

Turning to `N=C(N)NCCC[C@H](NC(=O)[C@H](CCCNC(=N)N)NC(=O)[C@H](CCCNC(=N)N)NC(=O)[C@H](CCCNC(=N)N)NC(=O)[C@H](CCCNC(=N)N)NC(=O)[C@H](CCCNC(=N)N)NC(=O)[C@H](CCCNC(=N)N)NC(=O)[C@H](CCCNC(=N)N)NC(=O)[C@H](CCCNC(=N)N)NC(=O)[C@H](CCCNC(=N)N)NC(=O)[C@H](CCCNC(=N)N)NC(=O)CNC(=S)Nc1ccc2c(c1)C(=O)OC21c2ccc(O)cc2Oc2cc(O)ccc21)C(=O)O` [R11, ^FITC-G-R11], the “half-life of R11” value in the data set on C4-2 is 24.1 h; in the data set on PC3, 24.0 h; in the data set with LAPC4, 22.8 h; in the data set with LNCaP, 23.4 h. In addition, in data set [1], the “ex vivo fluorescence signal of lung tumor lesion” value is reported as “clear fluorescence signal is visualized in the ex vivo tumor lesion”. The “tissue localization in mouse bladder (histologic examination)” value in data set [2] is “presence of R11 in both transitional and stromal cell compartments of bladder”. Besides, in “in vitro”, the half-life at 5 μM lay in the range of 23 to 24 h.

For `N=C(N)NCCCC(NC(=O)C(CCCNC(=N)N)NC(=O)C(CCCNC(=N)N)NC(=O)C(CCCNC(=N)N)NC(=O)C(CCCNC(=N)N)NC(=O)C(CCCNC(=N)N)NC(=O)C(CCCNC(=N)N)NC(=O)C(CCCNC(=N)N)NC(=O)C(CCCNC(=N)N)NC(=O)C(CCCNC(=N)N)NC(=O)C(CCCNC(=N)N)NC(=O)CNC(=O)CN1CCN(CC(=O)O)CCN(CC(=O)O)CCN(CC(=O)O)CC1)C(=O)O` (centres unmarked) [^64Cu-DOTA-R11, DOTA-G-RRRRRRRRRRR, metal not drawn], the half-life in “in vivo [3]” (elimination half life from other organs (the secondary compartment)) is 17.2 h. In “in vivo [3]” (half-life in the blood (the primary compartment)), the half-life is around 0.178 h. The same compound came in with a tissue uptake at 0.25 h in “in vivo [4]” below 4 %ID/g. In addition, the tissue to tissue ratio in “in vivo [5]” was above 8. Further, in [6], the “accumulation in prostate and bladder” value was “strong tendency to accumulate in prostate and bladder”; the “uptake in other organs (blood, lungs, liver, spleen, kidneys, muscle)” value was “remarkably low uptake in other organs; also recorded: remarkably low uptake by other organs”. In addition, the “ex vivo microPET and autoradiography of lungs with T24 metastases” value in the data set on T24 lung metastases was “elevated uptake”.

Broadly, the half-life is the time in which the quantity being followed falls by half. A higher half-life goes with slow loss. What is called tissue uptake is the share of the injected amount in each gram of the tissue. Low values mean little accumulation, high ones strong accumulation.
